Measured values: BindingDB's records for doi:10.1111/cbdd.12751 (Shandong University, 2016)

Molecular target: Gag-Pol polyprotein (Human immunodeficiency virus type 1 group M subtype B (isolate NY5), UniProt P12497)
Test: HIV-1 RT Inhibition Assay
Details: 37 °C
Procedure: A reverse transcriptase (RT) assay kit produced by Roche was selected for the RT inhibition assay. All the reagents for performing the RT reaction came with the kit, and the ELISA procedures for RT inhibition assay were carried out following the description in the kit protocol. Briefly, the reaction mixture containing template/primer complex, viral nucleotides (dNTPs), and RT in the incubation buffer with or without inhibitors was incubated for 1 h at 37 °C. After that, the reaction mixture was transferred to a streptavidincoated microtiter plate and incubated for another 1 h at 37 °C to make sure that retranscriptional cDNA chain consisted of biotin-labeled dNTPs bound to streptavidin. Then, unbound dNTPs were removed using washing buffer and anti-DIG-POD working solution was added. After incubation for 1 h at 37 °C, the DIG-labeled dNTPs incorporated into cDNA were bound to the anti-DIG-POD antibody. The unbound anti-DIG-PODs were removed.

**Q.** For Cc1cc(C#N)cc(C)c1Oc1nc(Nc2ccc(C#N)cc2)nc(N)c1Br, which IC50 is on record?
**A.** 370 nM

**Q.** Which IC50 does the source give for Cc1ccnc2c1NC(=O)c1cccnc1N2C1CC1 [BI-RG-587] here?
**A.** 690 nM

**Q.** For NS(=O)(=O)c1ccc(NC(=O)CSc2nc3ncccc3n2-c2ccc(C3CC3)c3ccccc23)c(Br)c1 [N-(2-Bromo-4-sulfonamido-phenyl)-2-(1-(4-cyclopropylnaphthalen-1-yl)-1H-imidazo[4,5-b]pyridin-2-ylthio)acetamide (12)], which IC50 is on record?
**A.** 1500 nM
